Laboratory results published in US8980952B2, “Methods for treating brain swelling with a compound that blocks a non-selective cation channel” (University of Maryland, Baltimore, priority 2002, dated 2015).
Values joined by “and” are separate entries in the source; they are usually repeats but may differ in a detail not shown here. Equal values may be shown once. “Also recorded” adds a separate entry of the source. Read-outs that look alike come from different tables or passages of the source.

Assays:
[1] = system: SUR1; experiment: SUR1 knockdown by antisense oligodeoxynucleotide infusion at gelfoam implantation site; assay type: in vivo, rat; conditions: ODN infused 14 days; vs. scrambled sequence ODN
[2] = system: native reactive astrocytes (NRAs); experiment: Current clamp recording of membrane potential, nystatin-perforated patch; assay type: cell-based, rat
[3] = system: native reactive astrocytes (NRAs); experiment: Cell blebbing and swelling after ATP depletion (SEM, phase contrast microscopy); assay type: cell-based, rat
[4] = system: native reactive astrocytes (NRAs); assay type: cell-based, rat
[5] = system: native reactive astrocytes (NRAs); experiment: Necrotic/apoptotic cell death by propidium iodide and annexin V staining; assay type: cell-based, rat
[6] = system: gliotic capsule; conditions: for GFAP response / gliotic capsule: glibenclamide 1 μM or diazoxide 10 μM at 0.5 μl/hr × 7 days
[7] = system: MMP-9 & MMP-2; experiment: Zymography of gelatinase activity of recombinant enzyme and stroke tissue; assay type: biochemical; conditions: glibenclamide 10 μM; MMP inhibitor II 300 nM
Method: Activation of MMP-9 & MMP-2 in stroke tissue was compared to controls. […] Calbiochem). Next, the supernatants underwent a gelatinase purification process with gelatin-Sepharose 4B (Pharmacia), and Zymography was performed on the purified supernatants in sodium dodecyl sulfate gels containing gelatin (Rosenberg, 1994). Dried gels were scanned with a transparency scanner, and images were analyzed by densitometry. The relative lysis of an individual sample was expressed as the integrated density value of its band and divided by the protein content of the sample.

[8] = Thromboembolic (TE) MCA stroke model; assay type: in vivo, rat; conditions: for Infarct volume, percent of hemisphere volume: 75 ng/hr
[9] = Thromboembolic stroke with tPA reperfusion at 6 hr, hemorrhagic conversion; assay type: in vivo, rat; conditions: 24 hr after stroke, co-treated with tPA 10 mg/kg i.v. at 6 hr; loading dose 1.5 μg/kg i.v. plus s.c. pump
[10] = Rodent model of stroke, glibenclamide vs. saline by subcutaneous mini-pump; assay type: in vivo, rat
[11] = glibenclamide 1 μM with Na azide 1 mM

## SUR1KD: SUR1 antisense oligodeoxynucleotide 5′-GGCCGAGTGGTTCTCGGT-3′ (SEQ ID NO: 9) (DNA, backbone not given here)
[1]
  SUR1 expression in gliotic capsule (immunoblot): significant reduction in SUR1 expression
[2]
  Depolarization on application of Na azide: 8.7±1.7 mV
[3]; cells from SUR1KD
  Membrane blebbing after Na azide: not observed

## [N-]=[N+]=[N-] [NaN3, Sodium azide]
[2]
  Em after depolarization: −4.3±0.9 mV
[3]
  Time to apparent blebbing after exposure: 10 to 15 min and 7 to 10 min

## CC[N+](CC)(CC)CC.[Cl-] [TEA, tetraethylammonium chloride]
[4]
  Block of large outward currents: partially blocked

## C[C@@H]1O[C@@H](O[C@H]2C[C@@H](O)[C@]3(CO)[C@H]4[C@H](O)C[C@]5(C)[C@@H](C6=CC(=O)OC6)CC[C@]5(O)[C@@H]4CC[C@]3(O)C2)[C@H](O)[C@H](O)[C@H]1O [ouabain]
[2]; 1 mM ouabain
  Depolarization: small reversible depolarization

## iberiotoxin: toxin partially blocking large conductance Ca2+-activated K+ channel currents (QFTDVDCSVSKECWSVCKDLFGVDRGKCMGKKCRCYQ)
[4]
  Block of large outward currents: partially blocked

## charybdotoxin: toxin partially blocking large conductance Ca2+-activated K+ channel currents
[4]
  Block of large outward currents: partially blocked

## Nc1ccncc1 [4-AP, 4-aminopyridine]
[4]
  Outward current remaining in presence of charybdotoxin: further blocked

## CC1=NS(=O)(=O)c2cc(Cl)ccc2N1 [diazoxide]
[5]
  Necrotic death by channel opener: necrotic death can also be induced by diazoxide
[3]; no ATP depletion
  Blebbing with channel opener alone: blebbing occurs even without ATP depletion; also recorded: developed progressive blebbing consistent with cytotoxic edema

## OC[C@@H](O)[C@@H](O)[C@H](O)[C@H](O)CO [mannitol]
[2]; 50 mM mannitol
  Effect on NaN3-induced depolarization: neither the time course nor the magnitude of the depolarization is affected
[3]; 50 mM mannitol, 350 mOsm
  Delay of bleb formation after exposure to NaN3: > 30 min

## COc1ccc(Cl)cc1C(=O)NCCc1ccc(S(=O)(=O)NC(=O)NC2CCCCC2)cc1 [glibenclamide]
[6]
  GFAP response / gliotic capsule: well defined gliotic capsule
[6]; listed as Glibenclamide
  GFAP response / gliotic capsule: reduced the overall injury response
[6]; infusion into site of gelatin sponge
  Inflammatory response / PMN infiltration: minimized the inflammatory response
8 hr after MCAO, supplemental glucose 1 gm/kg i.p. at 4 hr
  Reduction of edema with added glucose: just as effective in reducing edema
8 hr after stroke, saline 3.4%
  Rise of water in involved hemisphere: 2.0%
8 hr after stroke, saline 5.4%
  Rise of water in TTC(+) tissue: 2.5%
8 hr after stroke, saline 78.7±1.0%
  Water in TTC(−) tissue of involved hemisphere: 78.6±0.4%
8 hr after stroke, saline 81.3±0.5%, control hemisphere 77.9±0.2%
  Water content of involved hemisphere: 79.9±0.3%
8 hr after stroke, saline 83.4±1.1%
  Water in TTC(+) tissue of involved hemisphere: 80.5±0.3%
rat, in vivo
  Serum glucose: 93 ± 3 mg/dL
rat, in vivo, sc
  Mortality during 7 days after MCA stroke: 24%
[5]; [11]
  annexin V labeling (apoptotic death): not significantly different
  number of PI-positive cells (necrotic death): dramatically decreased; also recorded: largely prevented
[7]
  Gelatinase activity: did not directly inhibit gelatinase activity
[8]; 2 days after MCAO
  Infarct volume, percent of hemisphere volume: 16.7±2.2%
[8]; 48 hr after stroke, 10 male rats per group
  Stroke volume, percent of hemisphere volume: 15.5±2.3%
[8]; 7 days after MCAO
  Infarct volume, percent of hemisphere volume: 15.2±1.2%
[8]; begun 2 hr after stroke, loading dose 3.3 μg/kg i.p.
  Stroke volume vs. saline at 48 hr: significant reduction in stroke volume
[8]; begun 4 hours after MCAO, loading dose 3.3 μg/kg i.p.
  Stroke volume vs. saline at 48 hr: not statistically significant
[8]; begun 4 hours after MCAO, loading dose 33.0 μg/kg i.p. with glucose 1 gm/kg
  Stroke volume vs. saline at 48 hr: statistically significant reductions in stroke volume
[8]; begun 6 hours after MCAO, loading dose 33.0 μg/kg i.p. with glucose 1 gm/kg
  Stroke volume vs. saline at 48 hr: statistically significant reductions in stroke volume
[8]; infusion 75 ng/hr begun immediately after stroke, no loading dose
  Stroke volume vs. saline at 48 hr: significant reduction in stroke volume
[9]
  Animals with hemorrhagic conversion: 1 of 6 and ⅕
[3]; pretreated cells, observed 30 min
  Blebbing on NaN3 in presence of glibenclamide: does not cause blebbing; also recorded: remained phase bright with no pathological deterioration
[10]; rat, in vivo, sc
  3-day mortality after stroke: 28%
[10]; vs. saline-treated rats, n=5 per group
  Excess water in stroke hemisphere: only half as much excess water
